Laboratory results as given in ChEMBL document CHEMBL4825697, “Optimization and SAR research at the piperazine and phenyl rings of JNJ4796 as new anti-influenza A virus agents, part 1” (Eur J Med Chem, 2021).

How the values were obtained:
Influenza A virus = test: Antiviral activity against Oseltamivir resistant Influenza A virus (A/Tianjin-Jinnan/15/2009(H1N1) infected in dog MDCK cells assessed as inhibition of surface glycoprotein hemagglutinin; type: functional, organism-based
[1] = Selectivity index, ratio of CC50 for cytotoxicity against dog MDCK cells to IC50 for antiviral activity against Oseltamivir resistant Influenza A virus (A/Tianjin-Jinnan/15/2009(H1N1)) infected in dog MDCK cells; type: toxicity, cell-based; conditions: read-out: Selectivity Index

SMILES: CC(=O)Nc1ccc2oc(-c3ccnc(C(=O)N4CCN([C@H](c5ccc(F)cc5)c5nnn(C)n5)CC4)c3)nc2c1
- IC50 (Influenza A virus): 0.06 µM
- selectivity ratio [1]: > 3330

SMILES: CCOC(=O)C1=C[C@@H](OC(CC)CC)[C@H](NC(C)=O)[C@@H](N)C1 [OSELTAMIVIR]
- IC50 (Influenza A virus): 180 µM
- selectivity ratio [1]: > 1

SMILES: NC(=O)c1ncn([C@@H]2O[C@H](CO)[C@@H](O)[C@H]2O)n1 [RIBAVIRIN]
- IC50 (Influenza A virus): 4.28 µM
- selectivity ratio [1]: > 46

SMILES: CC(=O)Nc1ccc2oc(-c3ccnc(C(=O)N4CCN([C@@H](c5ccccc5)c5nnn(C)n5)CC4)c3)nc2c1
- IC50 (Influenza A virus): 8.5 µM
- selectivity ratio [1]: > 23

SMILES: CC(=O)Nc1ccc2oc(-c3ccnc(C(=O)N4CCN([C@H](c5ccccc5)c5nnn(C)n5)CC4)c3)nc2c1
- IC50 (Influenza A virus): 0.05 µM
- selectivity ratio [1]: 2870

SMILES: CC(=O)Nc1ccc2oc(-c3ccnc(C(=O)N4CCN([C@@H](c5ccc(F)cc5)c5nnn(C)n5)CC4)c3)nc2c1
- IC50 (Influenza A virus): 6.65 µM
- selectivity ratio [1]: > 30
